PubChem BioAssay (NCI)
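Test compounds were applied to cells in 96-well plates for 48 hours at 5 doses. The concentration for full growth arrest is given as TGI.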

Tests used:
Experiment in all cases: DTP human tumour cell line panel, 48 h
786-0 renal = test system: 786-0 renal
OVCAR-4 ovarian = test system: OVCAR-4 ovarian
A498 renal = test system: A498 renal
SN12C renal = test system: SN12C renal
OVCAR-5 ovarian = test system: OVCAR-5 ovarian
MDA-N = test system: MDA-N
BT-549 breast = test system: BT-549 breast
ACHN renal = test system: ACHN renal
TK-10 renal = test system: TK-10 renal
NCI-H460 lung = test system: NCI-H460 lung
U251 CNS = test system: U251 CNS
EKVX NSCLC = test system: EKVX NSCLC
HOP-92 NSCLC = test system: HOP-92 NSCLC
SK-MEL-28 melanoma = test system: SK-MEL-28 melanoma
HCC-2998 colon = test system: HCC-2998 colon
A549 NSCLC = test system: A549 NSCLC
SF-539 CNS = test system: SF-539 CNS
OVCAR-3 ovarian = test system: OVCAR-3 ovarian
OVCAR-8 ovarian = test system: OVCAR-8 ovarian
SNB-19 CNS = test system: SNB-19 CNS
MDA-MB-231 breast = test system: MDA-MB-231 breast
MCF7 breast = test system: MCF7 breast
HL-60(TB) leukemia = test system: HL-60(TB) leukemia
HCT-116 colon = test system: HCT-116 colon
NCI/ADR-RES ovarian = test system: NCI/ADR-RES ovarian
SK-OV-3 ovarian = test system: SK-OV-3 ovarian
SNB-75 CNS = test system: SNB-75 CNS
IGROV1 ovarian = test system: IGROV1 ovarian
CAKI-1 renal = test system: CAKI-1 renal
UACC-62 melanoma = test system: UACC-62 melanoma
MDA-MB-435 = test system: MDA-MB-435
KM12 colon = test system: KM12 colon
HS 578T breast = test system: HS 578T breast
UACC-257 melanoma = test system: UACC-257 melanoma
SF-268 CNS = test system: SF-268 CNS
RXF 393 renal = test system: RXF 393 renal
MALME-3M melanoma = test system: MALME-3M melanoma
T-47D breast = test system: T-47D breast
PC-3 prostate = test system: PC-3 prostate
CCRF-CEM leukemia = test system: CCRF-CEM leukemia
K-562 leukemia = test system: K-562 leukemia
SR leukemia = test system: SR leukemia
HCT-15 colon = test system: HCT-15 colon
SK-MEL-5 melanoma = test system: SK-MEL-5 melanoma
NCI-H226 lung = test system: NCI-H226 lung
HT29 colon = test system: HT29 colon
NCI-H23 lung = test system: NCI-H23 lung
SK-MEL-2 melanoma = test system: SK-MEL-2 melanoma
HOP-62 NSCLC = test system: HOP-62 NSCLC
MOLT-4 leukemia = test system: MOLT-4 leukemia
UO-31 renal = test system: UO-31 renal
LOX IMVI melanoma = test system: LOX IMVI melanoma
DU-145 prostate = test system: DU-145 prostate
COLO 205 colon = test system: COLO 205 colon
NCI-H522 lung = test system: NCI-H522 lung
SF-295 CNS = test system: SF-295 CNS
SW-620 colon = test system: SW-620 colon
M14 melanoma = test system: M14 melanoma
RPMI-8226 leukemia = test system: RPMI-8226 leukemia

With `CC(C)C(C/C=C1/CC(CO)(COC(=O)CC(C(C)C)C(C)C)OC1=O)C(C)C` (stereo not given) the TGI (786-0 renal) was 23.3 µM, the TGI (OVCAR-4 ovarian) was 31.8 µM and the TGI (A498 renal) was 11 µM. The TGI (SN12C renal) was 31.9 µM, the TGI (OVCAR-5 ovarian) was 22.1 µM and the TGI (MDA-N) was 29.6 µM. For the same compound, the TGI (BT-549 breast) was 28.7 µM, the TGI (ACHN renal) was 18.2 µM and the TGI (TK-10 renal) was 16.1 µM. For the same compound, the TGI (NCI-H460 lung) was 20 µM, the TGI (U251 CNS) was 25.3 µM and the TGI (EKVX NSCLC) was 19.4 µM. The TGI (HOP-92 NSCLC) was 18.7 µM, the TGI (SK-MEL-28 melanoma) was 27.7 µM and the TGI (HCC-2998 colon) was 13.3 µM. For the same compound, the TGI (A549 NSCLC) was 14.6 µM, the TGI (SF-539 CNS) was 23.8 µM and the TGI (OVCAR-3 ovarian) was 26.7 µM. It also gave a TGI (OVCAR-8 ovarian) of 29.7 µM, a TGI (SNB-19 CNS) of 25.8 µM and a TGI (MDA-MB-231 breast) of 18.5 µM. The TGI (MCF7 breast) was 28.4 µM, the TGI (HL-60(TB) leukemia) was 11.7 µM and the TGI (HCT-116 colon) was 35.1 µM. The TGI (NCI/ADR-RES ovarian) was 31.6 µM, the TGI (SK-OV-3 ovarian) was 30.5 µM and the TGI (SNB-75 CNS) was 18.8 µM. For the same compound, the TGI (IGROV1 ovarian) was 31.1 µM, the TGI (CAKI-1 renal) was 16.5 µM and the TGI (UACC-62 melanoma) was 30.1 µM. It also gave a TGI (MDA-MB-435) of 16.9 µM, a TGI (KM12 colon) of 21.6 µM and a TGI (HS 578T breast) of 2.29 µM. For the same compound, the TGI (UACC-257 melanoma) was 30.3 µM, the TGI (SF-268 CNS) was 23.1 µM and the TGI (RXF 393 renal) was 26 µM. For the same compound, the TGI (MALME-3M melanoma) was 23.1 µM, the TGI (T-47D breast) was 22.9 µM and the TGI (PC-3 prostate) was 20.2 µM. The TGI (CCRF-CEM leukemia) was 29.9 µM, the TGI (K-562 leukemia) was greater than 36.3 µM and the TGI (SR leukemia) was greater than 50.3 µM. The TGI (HCT-15 colon) was 30.3 µM, the TGI (SK-MEL-5 melanoma) was 22.3 µM and the TGI (NCI-H226 lung) was 22.6 µM. The TGI (HT29 colon) was 30.5 µM, the TGI (NCI-H23 lung) was 29.9 µM and the TGI (SK-MEL-2 melanoma) was 30.1 µM. The TGI (HOP-62 NSCLC) was 18.3 µM, the TGI (MOLT-4 leukemia) was 32.7 µM and the TGI (UO-31 renal) was 19.9 µM. The TGI (LOX IMVI melanoma) was 20.8 µM, the TGI (DU-145 prostate) was 26.3 µM and the TGI (COLO 205 colon) was 3.33 µM. For the same compound, the TGI (NCI-H522 lung) was 26.5 µM, the TGI (SF-295 CNS) was 16.5 µM and the TGI (SW-620 colon) was 18.1 µM. The TGI (M14 melanoma) was 26.8 µM.
In the case of `N#Cc1[nH]c(=O)n(-c2ccc(Cl)cc2)c1N`, the TGI (786-0 renal) is reported as greater than 10 µM, the TGI (OVCAR-4 ovarian) is reported as greater than 10 µM and the TGI (A498 renal) is reported as greater than 10 µM. It also gave a TGI (SN12C renal) greater than 10 µM, a TGI (OVCAR-5 ovarian) greater than 10 µM and a TGI (MDA-N) greater than 10 µM. It also gave a TGI (BT-549 breast) greater than 10 µM, a TGI (ACHN renal) greater than 10 µM and a TGI (TK-10 renal) greater than 10 µM. It also gave a TGI (NCI-H460 lung) greater than 10 µM, a TGI (U251 CNS) greater than 10 µM and a TGI (EKVX NSCLC) greater than 10 µM. It also gave a TGI (SK-MEL-28 melanoma) greater than 10 µM, a TGI (HCC-2998 colon) greater than 10 µM and a TGI (A549 NSCLC) greater than 10 µM. It also gave a TGI (SF-539 CNS) greater than 10 µM, a TGI (OVCAR-3 ovarian) greater than 10 µM and a TGI (OVCAR-8 ovarian) greater than 10 µM. It also gave a TGI (SNB-19 CNS) greater than 10 µM, a TGI (MDA-MB-231 breast) greater than 10 µM and a TGI (MCF7 breast) greater than 10 µM. For the same compound, the TGI (HL-60(TB) leukemia) was greater than 10 µM, the TGI (HCT-116 colon) was greater than 10 µM and the TGI (NCI/ADR-RES ovarian) was greater than 10 µM. The TGI (SK-OV-3 ovarian) was greater than 10 µM, the TGI (IGROV1 ovarian) was greater than 10 µM and the TGI (CAKI-1 renal) was greater than 10 µM. It also gave a TGI (UACC-62 melanoma) greater than 10 µM, a TGI (MDA-MB-435) greater than 10 µM and a TGI (KM12 colon) greater than 10 µM. For the same compound, the TGI (HS 578T breast) was greater than 10 µM, the TGI (UACC-257 melanoma) was greater than 10 µM and the TGI (SF-268 CNS) was greater than 10 µM. It also gave a TGI (RXF 393 renal) greater than 10 µM, a TGI (MALME-3M melanoma) greater than 10 µM and a TGI (T-47D breast) greater than 10 µM. For the same compound, the TGI (PC-3 prostate) was greater than 10 µM, the TGI (CCRF-CEM leukemia) was greater than 10 µM and the TGI (K-562 leukemia) was greater than 10 µM. The TGI (SR leukemia) was greater than 10 µM, the TGI (HCT-15 colon) was greater than 10 µM and the TGI (SK-MEL-5 melanoma) was greater than 10 µM. The TGI (NCI-H226 lung) was greater than 10 µM, the TGI (HT29 colon) was greater than 10 µM and the TGI (NCI-H23 lung) was greater than 10 µM. It also gave a TGI (SK-MEL-2 melanoma) greater than 10 µM, a TGI (RPMI-8226 leukemia) greater than 10 µM and a TGI (HOP-62 NSCLC) greater than 10 µM. For the same compound, the TGI (MOLT-4 leukemia) was greater than 10 µM, the TGI (LOX IMVI melanoma) was greater than 10 µM and the TGI (DU-145 prostate) was greater than 10 µM. It also gave a TGI (COLO 205 colon) greater than 10 µM, a TGI (NCI-H522 lung) greater than 10 µM and a TGI (SF-295 CNS) greater than 10 µM. The TGI (M14 melanoma) was greater than 10 µM.
In the case of `COC(=O)NCCc1[nH]nc2c1C(=O)C=C(Nc1ccccc1)C2=O`, the TGI (786-0 renal) is reported as greater than 100 µM, the TGI (OVCAR-4 ovarian) is reported as 72 µM and the TGI (A498 renal) is reported as greater than 100 µM. For the same compound, the TGI (SN12C renal) was greater than 100 µM, the TGI (OVCAR-5 ovarian) was greater than 100 µM and the TGI (MDA-N) was 33.2 µM. The TGI (BT-549 breast) was greater than 100 µM, the TGI (ACHN renal) was greater than 100 µM and the TGI (TK-10 renal) was greater than 100 µM. The TGI (NCI-H460 lung) was greater than 100 µM, the TGI (U251 CNS) was 42.2 µM and the TGI (EKVX NSCLC) was greater than 100 µM. It also gave a TGI (HOP-92 NSCLC) of 95.5 µM, a TGI (HCC-2998 colon) greater than 100 µM and a TGI (A549 NSCLC) greater than 100 µM. It also gave a TGI (SF-539 CNS) of 52.4 µM, a TGI (OVCAR-3 ovarian) greater than 100 µM and a TGI (OVCAR-8 ovarian) of 40.2 µM. For the same compound, the TGI (SNB-19 CNS) was greater than 100 µM, the TGI (MDA-MB-231 breast) was 87.7 µM and the TGI (MCF7 breast) was 31.2 µM. The TGI (HL-60(TB) leukemia) was 46.3 µM, the TGI (HCT-116 colon) was 54.9 µM and the TGI (NCI/ADR-RES ovarian) was 70.3 µM. It also gave a TGI (SK-OV-3 ovarian) greater than 100 µM, a TGI (SNB-75 CNS) greater than 100 µM and a TGI (IGROV1 ovarian) of 65.2 µM. For the same compound, the TGI (CAKI-1 renal) was greater than 100 µM, the TGI (UACC-62 melanoma) was 34.8 µM and the TGI (MDA-MB-435) was 31.1 µM. The TGI (KM12 colon) was 62.2 µM, the TGI (HS 578T breast) was greater than 100 µM and the TGI (UACC-257 melanoma) was 32.3 µM. For the same compound, the TGI (SF-268 CNS) was greater than 100 µM, the TGI (RXF 393 renal) was greater than 100 µM and the TGI (MALME-3M melanoma) was 25.5 µM. The TGI (T-47D breast) was greater than 100 µM, the TGI (PC-3 prostate) was greater than 100 µM and the TGI (CCRF-CEM leukemia) was 51.1 µM. The TGI (K-562 leukemia) was greater than 100 µM, the TGI (SR leukemia) was 65.2 µM and the TGI (HCT-15 colon) was greater than 100 µM. It also gave a TGI (SK-MEL-5 melanoma) of 32.2 µM, a TGI (HT29 colon) greater than 100 µM and a TGI (NCI-H23 lung) of 31.4 µM. The TGI (SK-MEL-2 melanoma) was 99.4 µM, the TGI (RPMI-8226 leukemia) was greater than 100 µM and the TGI (HOP-62 NSCLC) was greater than 100 µM. For the same compound, the TGI (MOLT-4 leukemia) was 54.4 µM, the TGI (UO-31 renal) was greater than 100 µM and the TGI (LOX IMVI melanoma) was 75.8 µM. For the same compound, the TGI (DU-145 prostate) was greater than 100 µM, the TGI (COLO 205 colon) was 37.5 µM and the TGI (NCI-H522 lung) was 28.6 µM. For the same compound, the TGI (SF-295 CNS) was greater than 100 µM, the TGI (SW-620 colon) was greater than 100 µM and the TGI (M14 melanoma) was greater than 100 µM.
